These results are taken from patent US5457099A, “Carbostyril derivatives and antiallergic agent” (Sawai Pharmaceutical Co., Ltd., priority 1992, dated 1995).

The subject of series [1] is blood TXA2. Put plainly: Blood thromboxane (TX)A2 in sensitized guinea pigs. The class given is in vivo, Hartley guinea pigs. The procedure:
(§1) Male Wistar rats of 7 weeks old and weighing about 280 g were passively sensitized with rat anti-ovalbumin anti-serum prepared according to the method of Tada and Okumura. Similarly, Hartley guinea pigs of 8 weeks old and weighing about 500 g were passively sensitized with guinea pig anti-ovalbumin antiserum prepared by immunizing with a mixed emulsion of ovalbumin and complete Freund's adjuvant (4.5:5.5) .
(§2) After 24 hours, trachea was incised under urethane ansthetiziation and cannulated with a respirator. Ovalbumin was intravenously administered to elicit the reaction while observing airway resistance according to a modified Konzett and Roessler method. Drugs were orally administered before 1 hour of elicitation of reaction. Blood samples were drawn from artery of rats and guinea pigs before the elicitaiton and after 8 minutes and 15 minutes, respectively, of the elicitation. The obtained blood samples were immediately mixed with 10 mM EDTA disodium and 0.4 mM indomethacin and centrifuged to separate blood plasma. TXB2, a metabolite of TXA2, in the blood plasma was partially purified by C18 column and determined by Enzyme Immunoassay Kit.

In another series the test system is Male IcR mice. In words: Acute toxicity in mice. In kind it is in vivo. The settings on record: p.o. and i.p. The procedure:
(§3) Antiserum was prepared according to the method described in J. Immunol., 106, 1002 (1971). The titer (or highest effective dilution which gave a mean 48 hours PCA response of 5 mm in diameter in a rat) of the antiserum used was 1:200.
(§4) Male IcR mice (SPF) (Nippon SLC, weight:24-32 g) of 4 weeks age were fasted for 5 hours before the test. The test compound (III-2) was administered in the form of a suspension in 0.5% carboxymethylcellulose sodium salt (0.2 ml per 10 g). Survived and dead animals were autopsied at day 14 and immediately after the death, respectively.

The nature of another series: Acute toxicity in mice. In kind it is in vivo. The note with it: mouse, in vivo, suspension in 0.5% carboxymethylcellulose sodium. Here is the method: as §3, §4
Series [2] relates to experimental asthma in guinea pigs. Put plainly: Inhibition of experimental asthma in guinea pigs. In kind it is in vivo, Male Hartley guinea pigs. The settings on record: p.o., 1 mg/kg; significance vs. control: * p < 0.05, *** p < 0.001. The procedure: Male Hartley guinea pigs (N=10) were passively sensitized by intravenous injection of guinea pig antiovalbumin antiserum (titer for 3 hours PCA: 16000 times) diluted 5 times with physiological saline at a rate of 0.2 ml/animal. After 24 hours, the animal was fixed at dorsal position under urethane anesthetization and connected with a respirator (Harvard Model 683, respiratory volume: 4-6 ml/respiration; respiratory rate: 40/minute) via an incised tracheal cannula. Then 1 mg/kg Gallamine triethiodide was intravenously administered to stop the spontaneous respiration. […] Oxatomide was administered two hours before the challenge by antigen and the test drug (compound III-2) and Ketotifen were administered orally 1 hour before the challenge.

In series [3] the test system is experimental asthma in rats. In words: Inhibition of experimental asthma in rats. In kind it is in vivo, Wistar rats. The note with it: Rattus norvegicus, po; for inhibition in vivo at 10 mg/kg: read-out: Inhibition of Experimental Asthma in rat; for inhibition in vivo at 0.1 mg/kg: other dosage/kg: 0.1 mg; for inhibition in vivo at 0.3 mg/kg: other dosage/kg: 0.3 mg; for inhibition in vivo at 1 mg/kg: other dosage/kg: 1 mg. Here is the method:
as §3
Wistar rats were passively sensitized by injection into caudal vein of 2.0ml/animal antiserum. After 24 hours, anaphylactic airway contraction caused by administration of antigen was measured by a modified Konzett and Roessler method. Briefly, the animal was fixed at dorsal position under urethane (1.5 g/kg, i.p.) anesthetization and connected with a respirator (Harvard Model 683, respiratory volume: 3-5 ml/respiration; respiratory rate: 72/minute) via an incised tracheal cannula. […] Oxatomide was administered two hours before the test, which is the optimal conditions according to Nippon Yakurigaku Zasshi (Japanese Journal of Pharmacology), 80, 261 (1982), and the other test drugs were orally administered at a rate of 0.2 ml/100 g body weight one hour before the test using a gastric tube. At the end of measurement, the trachea was blocked with a Kocher clamp and the measured values were expressed in percent taking the value at blockage as the maximum contraction (100%).

For series [4], the system named is blood TXA2. Put plainly: Blood thromboxane (TX)A2 in sensitized rats. The class given is in vivo, Male Wistar rats. The note with it: 1 mg/kg orally. Here is the method:
as §1, §2

Series [5] relates to passive cutaneous anaphylaxis (PCA) reaction in rats. In words: Inhibition of PCA reaction in rats. The class given is in vivo, Wistar rats. The note with it: Rattus norvegicus, po; for inhibition in vivo at 10 mg/kg: read-out: Inhibition of PCA in rat. Here is the method:
as §3
Wistar rats were passively sensitized by intracutaneous injection of 0.05 ml antiserum diluted 75 times with physiological saline at two sheared sites of dorsal skin. After 48 hours, 0.5ml/animal of 1% Evans blue-physiological saline containing 2mg ovalbumin was administered into caudal vein to elicit the reaction. After 30 minutes, rats were sacrificed by decapitative bleeding and the dorsal skin was flayed. Dye stuff exuded at the reaction site was extracted according to the method described in Microbiol. Immunol., 22, 89 (1978). Briefly, two circular pieces of sensitized areas and one circular piece of unsensitized area (as the control) were punched at 1.8 cm diameter. The disks were placed in test tubes and treated overnight with 1 ml 1N-KOH at 37° C. Then 9ml 0.6N-H3 PO4 /acetone (5/13) was added and the mixture was thoroughly stirred and centrifuged (3000 rpm, 10 minutes). The supernatant was assayed for absorption at 620 nm. The amount of dye stuff was calculated from the standard curve previously prepared with known amounts of Evance blue. The conditions of sensitization and the amount of antigen were based on Nippon Yakurigaku Zasshi (Japanese Journal of Pharmacology),80, 261 (1982).
Test drugs and Oxatomide as a positive control were administered orally before 1 hour of elicitation through a gastric tube at 1 ml/200g body weight. In the test, groups of 6 to 7 animals and groups of 8 to 9 animals were used for test drugs and control, respectively.

The structures appear in SMILES notation. Read-outs that look alike come from different tables or passages of the source. A value given as a limit tells only on which side of the number the result lay.

As usually defined, the LD50 is the dose expected to kill half of the subjects tested. As for `O=c1cc(CCN2CCC(c3c[nH]c4ccccc34)CC2)c2ccccc2[nH]1` [III-2, 4-[2-[4-(1H-indol-3-yl)-1-piperidinyl]ethyl]-2-(1H)-quinolinone], the “Blood TXA2 before reaction” value in the series with blood TXA2 [1] (3 mg/kg orally 1 hour before elicitation, n = 5) was determined as 0.26 ± 0.05 ng/mL. Also, the “Inhibition of blood TXA2 increase” value was 94.4% in the series on blood TXA2 [1] (3 mg/kg orally, n = 5) and 68.7% in the series on blood TXA2 [4] (n = 11). Further, the “Blood TXA2 after reaction” value stood at 0.28 ng/mL in the series on blood TXA2 [1] (3 mg/kg orally, n = 5, *p < 0.05 vs. control) and 0.45 ng/mL in the series with blood TXA2 [4] (n = 11, ***p < 0.001 vs. control). In the series with Male IcR mice, the “Acute toxicity (in words)” value is reported as “low toxity”. In addition, the LD50 at 336 h was greater than 1000 mg/kg in “Acute toxicity in mice” (ip, read-out: LD50 for i.p.) and greater than 3000 mg/kg in “Acute toxicity in mice” (po, read-out: LD50 for p.o.). The “Inhibition % of experimental asthema in guinea pig” value (“Inhibition %” for short) in series [2] is listed as 70.3%. In addition, the inhibition in vivo at 10 mg/kg in series [3] was 94.8%; in series [5], 67.4%. The inhibition in vivo at 0.1 mg/kg in series [3] is 27.5%. In series [3], the inhibition in vivo at 0.3 mg/kg worked out at 84.3%. Besides, the inhibition in vivo at 1 mg/kg in series [3] is 73%. In series [3] (other dosage/kg: 3 mg), the inhibition in vivo at 3 mg/kg came to 95.5%. Further, the inhibition in vivo at 30 mg/kg in series [5] (other dosage/kg: 30 mg) is 74.6%.

As for `O=c1[nH]c2ccccc2n1CCCN1CCN(C(c2ccccc2)c2ccccc2)CC1` [Oxatomide, 1-[3-{4-(diphenylmethyl)-1-piperazinyl}propyl]-1,3-dihydro-2H-benzimidazol-2-one], the “Inhibition %” value in series [2] was determined as 43.7%.

With `Cc1ccc(-c2cc(=O)n(CCCN3CCC(c4c[nH]c5ccccc45)CC3)c3ccccc23)cc1` [VII-7, 1-[3-[4-(1H-indol-3-yl)-piperidinyl]propyl]-4-(4-methylphenyl)-2(1H)-quinolinone], the results for the inhibition in vivo at 10 mg/kg in series [3] and in series [5] were 13.1% and 18.5%, respectively.

On to `Cc1cc(C)c2c(CCN3CCC(c4c[nH]c5ccccc45)CC3)cc(=O)[nH]c2c1` [III-27, 5,7-dimethyl-4-[2-[4-(1H-indol-3-yl)-1-piperidinyl]ethyl]-2(1H)-quinolinone], for which the inhibition in vivo at 10 mg/kg was 65.8% in series [3] and 70.9% in series [5].

As for `O=C1Cc2ccccc2C(=C2CCN(CCCc3cc(=O)[nH]c4ccccc34)CC2)c2ccsc21` [III-15, 4,9-dihydro-4-[1-[3-(1,2-dihydro-2-oxo-4-quinolyl)propyl]-4-piperidinylidene]-10H-benzo[4, 5]cyclohepta[1,2-b]thiophen-10-one], the inhibition in vivo at 10 mg/kg in series [3] stood at 37.5%; in series [5] it was 49.9%.

`O=c1cc(CCN2CCC(c3c[nH]c4ccccc34)CC2)c2cc([N+](=O)[O-])ccc2[nH]1` [III-19, 4-[2-[4-(1H-indol-3-yl)-1-piperidinyl]ethyl]-6-nitro-2(1H)-quinolinone]: the inhibition in vivo at 10 mg/kg in series [3] came out at 88.5%; in series [5], 20.3%.

In the case of `Cn1c(=O)cc(CCN2CCC(c3c[nH]c4ccccc34)CC2)c2ccccc21` [III-17, 4-[2-[4-(1H-indol-3-yl)-1-piperidinyl]ethyl]-1-methyl-2(1H)-quinolinone], in series [3], the inhibition in vivo at 10 mg/kg was found to be 86.5%, the inhibition in vivo at 0.1 mg/kg was 96.2%, the inhibition in vivo at 0.3 mg/kg amounted to 80.9% and the inhibition in vivo at 1 mg/kg was determined as 88.1%. In addition, the inhibition in vivo at 10 mg/kg in series [5] turned out to be 42.5%.

For the compound `CN1CCC(=C2c3ccccc3CC(=O)c3sccc32)CC1` [Ketotifen], the “Inhibition %” value in series [2] came out at 50.4%.
